Measured values as given in ChEMBL document CHEMBL1150916, “Isolation of 2-(3'-bromo-4'-hydroxyphenol)ethanamine from the New Zealand ascidian Cnemidocarpa bicornuta” (J Nat Prod, 1998).
The source made the active and inactive calls. The calls are words filed in the database; no cut-off is given here.

Tests used:
P388 = test: Cytotoxicity against mouse P388 cells; type: functional, cell-based
Bacillus subtilis = test: Antibacterial activity against Bacillus subtilis; type: functional, organism-based
Escherichia coli = test: Antibacterial activity against Escherichia coli; type: functional, organism-based
Pseudomonas aeruginosa = test: Antibacterial activity against Pseudomonas aeruginosa; type: functional, organism-based
Candida albicans = test: Antifungal activity against Candida albicans; type: functional, organism-based

SMILES	Activity (P388)	Activity (Bacillus subtilis)	Activity (Escherichia coli)	Activity (Pseudomonas aeruginosa)	Activity (Candida albicans)	IC50 (P388)
Cn1c(=N)c2nc[nH]c2n(C)c1=O	inactive	inactive	inactive	inactive	inactive	
NCCc1ccc(O)c(Br)c1		inactive	inactive	inactive	inactive	46 µM
